These results are taken from patent US20200316230A1, “DEVICES AND METHODS FOR RADIOPHARMACEUTICAL SYNTHESIS” (VANDERBILT UNIVERSITY, priority 2019, published 2020).

The nature of the series: microPET imaging of rat brain with [^18F]fallypride produced in the microfluidic chip. It is filed as in vivo. The following applies: microPET for about 2 hours, dose of about 300 μCi injected. From the text: To further verify the utility of the resulting [^18F]fallypride, we produced (using the integrated microfluidic chip) a dose of about 300 μCi with about 19.55 Ci/μmol (723.35 GBq/μmol) of specific activity and about 98.62% of radiochemical purity, and obtained PET data from a rat brain. The time point used to calculate the specific activity was at the end of production, namely the time when the purified [^18F]fallypride was retrieved from chip. The rat was brought to the imaging lab to habituate about 3 hours prior to imaging. Sbout 0.1 ml purified [^18F] fallypride was filtered through an about 0.45 μm filter (Millex-HV) and about 0.9 ml saline was added to formulate the PET probe used for rat injection. […] The accumulation and pharmacokinetics of [^18F]fallypride were as expected when evaluated in the rat brain.

On to `C=CCN1CCC[C@H]1CNC(=O)c1cc(CCC[18F])cc(OC)c1OC` [[^18F]fallypride], for which the “accumulation and pharmacokinetics of [^18F]fallypride in the rat brain” value is on record as “as expected”.
